Reference: ChEMBL document CHEMBL4330144, “A mitochondria-targeted organic arsenical accelerates mitochondrial metabolic disorder and function injury” (Bioorg Med Chem, 2019)

Test system: NB-4
Test: Induction of mitochondrial membrane potential loss in human NB4 cells by JC1 staining based flow cytometry (reference value: 27.7%)
Assay type: functional

How did the Activity turn out when `N#CC(C#N)=NNc1cccc(Cl)c1` [CARBONYL CYANIDE M-CHLOROPHENYLHYDRAZONE] was run?
The Activity was 93%.
